{"source": "ChEMBL document CHEMBL4392856", "about": "“Synthesis of diphenoxyadamantane alkylamines with pharmacological interest” (Bioorg Med Chem Lett, 2019)", "key": {"Trypanosoma brucei": {"system": "Trypanosoma brucei", "test": "Antitrypanosomal activity against Trypanosoma brucei 427 bloodstream forms assessed as inhibition of parasite growth incubated for 48 hrs by Alamar blue assay", "assay_type": "functional, organism-based", "details": "Trypanosoma brucei, 427, 48 h"}, "L6": {"system": "L6", "test": "Cytotoxic activity against rat L6 cells assessed as reduction in cell viability incubated for 6 days by Alamar blue assay", "assay_type": "cell-based", "details": "L6, 144 h"}, "[1]": {"system": "Mycobacterium tuberculosis", "test": "Antimycobacterial activity against Mycobacterium tuberculosis H37Rv assessed as inhibition of parasite growth incubated for 6 days by REMA method", "assay_type": "functional", "details": "144 h"}, "[2]": {"system": "Mycobacterium tuberculosis", "test": "Antimycobacterial activity against […] assessed as inhibition of parasite growth incubated for 6 days by REMA method", "assay_type": "functional"}, "[3]": {"system": "Mycobacterium tuberculosis", "test": "Antimycobacterial activity against Mycobacterium tuberculosis assessed as inhibition of parasite growth at 1 ug/ml incubated for 6 days by REMA method relative to untreated control", "assay_type": "functional", "details": "144 h"}}, "data": [{"smiles": "CN1CCN(CCOc2ccc(C3(c4ccc(OCCN5CCN(C)CC5)cc4)C4CC5CC(C4)CC3C5)cc2)CC1", "values": [{"measurement": "IC50", "setting": "Trypanosoma brucei", "result": 51, "unit": "nM"}, {"measurement": "IC90", "setting": "Trypanosoma brucei", "result": 70, "unit": "nM"}, {"measurement": "IC50", "setting": "L6", "result": 330, "unit": "nM"}, {"measurement": "MIC", "setting": "[1]", "result": 4.59, "unit": "µM"}, {"measurement": "Imax", "setting": "[2]", "result": 100, "unit": "%"}, {"measurement": "inhibition at 1 µg/mL", "setting": "[3]", "result": 0.04, "unit": "%"}]}, {"smiles": "CCCCCCNCC(O)COc1ccc(C23CC4CC(C2)CC(c2ccc(OCC(O)CNCCCCCC)cc2)(C4)C3)cc1", "note": "(stereo not given)", "values": [{"measurement": "IC50", "setting": "Trypanosoma brucei", "result": 205, "unit": "nM"}, {"measurement": "IC90", "setting": "Trypanosoma brucei", "result": 272, "unit": "nM"}, {"measurement": "IC50", "setting": "L6", "result": 450, "unit": "nM"}, {"measurement": "MIC", "setting": "[1]", "result": 0.084, "unit": "µM"}, {"measurement": "Imax", "setting": "[2]", "result": 0, "unit": "%"}, {"measurement": "inhibition at 1 µg/mL", "setting": "[3]", "result": 0, "unit": "%"}]}, {"smiles": "CN(C)CC(O)COc1ccc(C23CC4CC(C2)CC(c2ccc(OCC(O)CN(C)C)cc2)(C4)C3)cc1", "note": "(stereo not given)", "values": [{"measurement": "IC50", "setting": "Trypanosoma brucei", "result": 171, "unit": "nM"}, {"measurement": "IC90", "setting": "Trypanosoma brucei", "result": 235, "unit": "nM"}, {"measurement": "IC50", "setting": "L6", "result": 290, "unit": "nM"}]}, {"smiles": "OC(COc1ccc(C23CC4CC(C2)CC(c2ccc(OCC(O)CN5CCCCC5)cc2)(C4)C3)cc1)CN1CCCCC1", "note": "(stereo not given)", "values": [{"measurement": "IC50", "setting": "Trypanosoma brucei", "result": 250, "unit": "nM"}, {"measurement": "IC90", "setting": "Trypanosoma brucei", "result": 292, "unit": "nM"}, {"measurement": "IC50", "setting": "L6", "result": 270, "unit": "nM"}, {"measurement": "MIC", "setting": "[1]", "result": 10.4, "unit": "µM"}, {"measurement": "Imax", "setting": "[2]", "result": 99, "unit": "%"}, {"measurement": "inhibition at 1 µg/mL", "setting": "[3]", "result": 0.17, "unit": "%"}]}, {"smiles": "CCCCNCC(O)COc1ccc(C23CC4CC(C2)CC(c2ccc(OCC(O)CNCCCC)cc2)(C4)C3)cc1", "note": "(stereo not given)", "values": [{"measurement": "IC50", "setting": "Trypanosoma brucei", "result": 93, "unit": "nM"}, {"measurement": "IC90", "setting": "Trypanosoma brucei", "result": 110, "unit": "nM"}, {"measurement": "IC50", "setting": "L6", "result": 550, "unit": "nM"}, {"measurement": "MIC", "setting": "[1]", "result": 4.14, "unit": "µM"}, {"measurement": "Imax", "setting": "[2]", "result": 100, "unit": "%"}, {"measurement": "inhibition at 1 µg/mL", "setting": "[3]", "result": 50, "unit": "%"}]}, {"smiles": "CN1CCN(CC(O)COc2ccc(C34CC5CC(C3)CC(c3ccc(OCC(O)CN6CCN(C)CC6)cc3)(C5)C4)cc2)CC1", "note": "(stereo not given)", "values": [{"measurement": "IC50", "setting": "Trypanosoma brucei", "result": 176, "unit": "nM"}, {"measurement": "IC90", "setting": "Trypanosoma brucei", "result": 207, "unit": "nM"}, {"measurement": "IC50", "setting": "L6", "result": 260, "unit": "nM"}, {"measurement": "MIC", "setting": "[1]", "result": 20.5, "unit": "µM"}, {"measurement": "Imax", "setting": "[2]", "result": 95, "unit": "%"}, {"measurement": "inhibition at 1 µg/mL", "setting": "[3]", "result": 5, "unit": "%"}]}, {"smiles": "OCCN(CCO)CC(O)COc1ccc(C2(c3ccc(OCC(O)CN(CCO)CCO)cc3)C3CC4CC(C3)CC2C4)cc1", "note": "(stereo not given)", "values": [{"measurement": "MIC", "setting": "[1]", "result": 24.3, "unit": "µM"}]}, {"smiles": "CN1CCN(CC(O)COc2ccc(C3(c4ccc(OCC(O)CN5CCN(C)CC5)cc4)C4CC5CC(C4)CC3C5)cc2)CC1", "note": "(stereo not given)", "values": [{"measurement": "IC50", "setting": "Trypanosoma brucei", "result": 114, "unit": "nM"}, {"measurement": "IC90", "setting": "Trypanosoma brucei", "result": 138, "unit": "nM"}, {"measurement": "IC50", "setting": "L6", "result": 540, "unit": "nM"}, {"measurement": "MIC", "setting": "[1]", "result": 8.5, "unit": "µM"}]}, {"smiles": "CC[C@@H](CO)NCCN[C@@H](CC)CO", "note": "[ETHAMBUTOL]", "values": [{"measurement": "MIC", "setting": "[1]", "result": 0.11, "unit": "µM"}, {"measurement": "Imax", "setting": "[2]", "result": 0, "unit": "%"}, {"measurement": "inhibition at 1 µg/mL", "setting": "[3]", "result": 0, "unit": "%"}]}, {"smiles": "CSc1ccc(OCc2ncc([N+](=O)[O-])n2C)cc1", "note": "[FEXINIDAZOLE]", "values": [{"measurement": "IC50", "setting": "Trypanosoma brucei", "result": 1000, "unit": "nM"}]}, {"smiles": "CO[C@H]1/C=C/O[C@@]2(C)Oc3c(C)c(O)c4c(O)c(c(/C=N/N5CCN(C)CC5)c(O)c4c3C2=O)NC(=O)/C(C)=C\\C=C\\[C@H](C)[C@H](O)[C@@H](C)[C@@H](O)[C@@H](C)[C@H](OC(C)=O)[C@@H]1C", "note": "[RIFAMPIN]", "values": [{"measurement": "MIC", "setting": "[1]", "result": 0.001, "unit": "µM"}, {"measurement": "Imax", "setting": "[2]", "result": 54, "unit": "%"}, {"measurement": "inhibition at 1 µg/mL", "setting": "[3]", "result": 13, "unit": "%"}]}]}
